# Source: patent US20070129433A1, “Diphenylamine derivatives” (priority 2003, published 2007)
# What was measured:
# fatty Zucker rats = assay: Hypotriglyceridaemiant activity in fatty Zucker rats; assay type: in vivo, rat; details: 9-week-old male Zucker rats, 300 mg/kg/day p.o. for eight days, plasma after fasting four hours
# Procedure: The compound of Example 2 was tested on fatty Zucker rats (Zucker L. M. et al., 1961, Fatty a new mutation in the rat, J. Hered., 52: 275278). This animal is hyperphagic, obese and hyperinsulinaemic. It develops resistance to insulin, it is hyperlipidaemic, and has a large hypertriglyceridaemia. 9-week-old male Zucker rats were treated for eight days with this compound at a dose of 300 mg/kg/day p.o. After fasting for four hours, a blood sample is taken to recover the plasma. Under these conditions, the compound of Example 2 induces a large reduction in triglycerides, of 55% (p<0.01), and the insulinaemia is down by 59% (p<0.05).
# Human LDL = assay: Antioxidant effect: inhibition of copper-induced oxidation of human LDL (fluorescence); assay type: biochemical; details: human LDL 120 μg/ml + CuCl2, 37° C., fluorescence difference between 2 h and 24 h readings; from three concentrations
# Procedure: Human LDLs placed in aqueous solution in the presence of cupric ions, become spontaneously oxidized on their protein component, apolipoprotein-B. This oxidation makes the particle fluorescent, which is exploited to measure a pharmacological effect.
# The reactions and measurements are performed in black 96-well plates. 10 μl of a solution of the test product dissolved in dimethyl sulfoxide are first mixed with 170 μl of a solution of human LDL at a concentration of 120 μg/ml and 20 μl of 100 μM CuCl2. After stirring, the mixture is incubated for 2 hours at 37° C., and a first fluorescence reading is taken (excitation at 360 nm, reading at 460 nm). The mixture is then incubated for a further 22 hours, to take a second reading under the same conditions. The difference is proportionately smaller the greater the anti-oxidant power of the test product. Probucol is used as reference product at a concentration of 10 μM.
# The concentrations that inhibit 50% (IC50) of the oxidation are prepared from three concentrations of the test product. They are given in Table I below for some of the compounds given as examples below.
Structure (SMILES),reduction in triglycerides (fatty Zucker rats; p<0.01) [%],insulinaemia down by (fatty Zucker rats; p<0.05) [%],IC50 (Human LDL) [µM]
"COc1ccc(Nc2ccc(C(=O)O)cc2)cc1 [Example 2, 4-[(4-Methoxyphenyl)amino]benzoic acid]",55,59,10.6
"COc1ccc(Nc2ccc(C#N)cc2)cc1 [Example 6, 4-[(4-Methoxyphenyl)amino]benzonitrile]",,,8.5
"COc1ccc(Nc2ccc(CO)cc2)cc1 [Example 8, {4-[(4-Methoxyphenyl)amino]phenyl}methanol]",,,5.8
O=C(O)c1ccc(Nc2ccc([N+](=O)[O-])cc2)cc1 [Example 13],,,9.7
COc1ccc(Nc2ccc(CC(=O)O)cc2)cc1 [Example 17],,,11.1
COc1ccc(Nc2ccc(C(N)=O)cc2)cc1 [Example 42],,,18.6
